In PubChem BioAssay (NCI):
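Five concentrations, 48 hours, 96-well plates. TGI is the concentration that stops growth completely.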

Legend:
Experiment in all cases: NCI-60 cell line screen, 48 h
HCT-116 colon = system: HCT-116 colon
TK-10 renal = system: TK-10 renal
ACHN renal = system: ACHN renal
MDA-N = system: MDA-N
HOP-92 NSCLC = system: HOP-92 NSCLC
M14 melanoma = system: M14 melanoma
OVCAR-3 ovarian = system: OVCAR-3 ovarian
MDA-MB-435 = system: MDA-MB-435
SR leukemia = system: SR leukemia
UO-31 renal = system: UO-31 renal
NCI-H460 lung = system: NCI-H460 lung

Row | SMILES | TGI (HCT-116 colon) | TGI (TK-10 renal) | TGI (ACHN renal) | TGI (MDA-N) | TGI (HOP-92 NSCLC) | TGI (M14 melanoma) | TGI (OVCAR-3 ovarian) | TGI (MDA-MB-435) | TGI (SR leukemia) | TGI (UO-31 renal) | TGI (NCI-H460 lung)
1 | O=[N+]([O-])CC(SCc1ccccc1)c1ccc2c(c1)OCO2 (configuration not stated) | 4.46 µM | 25.2 µM | 28.3 µM | 9.63 µM | 21 µM | 13.1 µM | 18.3 µM | 7.93 µM | 8.51 µM | 22.2 µM | 37.9 µM
2 | COc1ccc(C(=O)N2CCN(c3ccc4c(c3)OCC(=O)N4)CC2)cc1 | > 100 µM | > 100 µM | > 100 µM | > 100 µM | > 100 µM | > 100 µM | > 100 µM | > 100 µM | > 100 µM | > 100 µM | > 100 µM
3 | CCN1/C(=C/c2ccc3ccccc3[n+]2CC)C=Cc2ccccc21 | 11.7 µM | 26.4 µM | 31.5 µM | 2.04 µM | 6.93 µM | 12.8 µM | 13.1 µM | 1.67 µM | > 100 µM | 8.45 µM | 4.95 µM
4 | C[n+]1c2ccccc2c(CNC(CCC(N)=O)C(=O)O)c2ccccc21 (configuration not stated) | 1.21 µM | 5.68 µM | 5.41 µM | 10.5 µM | 6.96 µM | 12.2 µM | 6.78 µM | 9.95 µM | 3.71 µM | 10.3 µM | 11.8 µM
5 | C=CCN1C(=O)/C(=C/c2ccc(C)cc2)N=C1SC/C=C/C | > 100 µM | > 100 µM | > 100 µM | > 100 µM | 90.9 µM | > 100 µM | > 100 µM | > 100 µM | 42.4 µM | > 100 µM | > 100 µM
6 | COC(=O)[C@H]1[C@H](C(=O)OC)[C@@H](C)c2c(ccc3c2[nH]c2ccccc23)[C@@H]1C | > 100 µM | > 100 µM | > 100 µM | > 100 µM | > 100 µM | > 100 µM | > 100 µM | > 100 µM | > 100 µM | > 100 µM | > 100 µM
7 | Oc1ccc(-c2nc3cc(C(F)(F)F)ccc3n2CC2CCCN3CCCCC23)cc1 (configuration not stated) | 29.3 µM | 30.5 µM | 28.3 µM | 29.7 µM | 28.5 µM | 32.3 µM | 27 µM | 26.3 µM | 35.8 µM | 25.1 µM | 28.3 µM
8 | FC(F)(F)c1ccc2c(c1)nc(Cc1ccccc1)n2C[C@@H]1CCCN2CCCCC12 (some centres not stated) | 27.9 µM | 31.3 µM | 26.5 µM | 26.2 µM | 27.2 µM | 23 µM | 28 µM | 30.4 µM | > 100 µM | 0.744 µM | 31.9 µM
9 | Cc1cc(C)c2c(n1)S(=O)(=O)N(CCCN1CCN(c3cccc(C(F)(F)F)c3)CC1)/C(=C(\O)c1ccccc1)C2=O | 18.3 µM | > 100 µM | > 100 µM | > 100 µM | 36.8 µM | > 100 µM | 18.1 µM | 82.8 µM | 18.7 µM | 52.7 µM | 22.3 µM
10 | OC(c1cccs1)c1cc2ccccc2s1 (configuration not stated) | > 10 µM | > 10 µM | > 10 µM | > 10 µM | > 10 µM | > 10 µM | > 10 µM | > 10 µM | > 10 µM | > 10 µM | > 10 µM
11 | COC(=O)c1ccc2n1C1CC3CC(CC2C3)C1 | > 100 µM | > 100 µM | > 100 µM | > 100 µM | > 100 µM | > 100 µM | > 100 µM | > 100 µM | > 100 µM | > 100 µM | > 100 µM
12 | COC(=O)NCCc1[nH]nc2c1C(=O)C=C(OC)C2=O | 32.6 µM | > 100 µM | 37 µM | 33.3 µM | 37.7 µM | 33.9 µM | 32 µM | 27.7 µM | 36.6 µM | 50.1 µM | > 100 µM
13 | O=C1CN(c2ccc(Cl)cc2)C(=O)CN1CCN1CC(=O)N(c2ccc(Cl)cc2)CC1=O | > 100 µM | > 100 µM | > 100 µM | > 100 µM | > 100 µM | > 100 µM | > 100 µM | > 100 µM | > 100 µM | > 100 µM | > 100 µM
14 | NC1CC2C3CCC2C1C3=O (configuration not stated) | > 100 µM | > 100 µM | > 100 µM | > 100 µM | > 100 µM | > 100 µM | > 100 µM | > 100 µM | > 100 µM | > 100 µM | > 100 µM
15 | CC(=O)Oc1ccn2nc(C)c(Br)c2c1Br | > 58.7 µM | > 94.8 µM | 31.4 µM | 32.6 µM | 36.7 µM | 34.7 µM | 33.4 µM | 35.2 µM | > 100 µM | > 29.6 µM | 53.1 µM
16 | OCCCSc1ccccc1SCCCO | > 100 µM | > 100 µM | – | > 100 µM | > 100 µM | > 100 µM | > 100 µM | > 100 µM | > 100 µM | > 100 µM | > 100 µM
17 | O=C(O)c1c(CC(Cc2ccc3c(c2)CCCC3)C(=O)O)ccc2c1CCCC2 (configuration not stated) | > 100 µM | > 100 µM | > 100 µM | > 100 µM | > 100 µM | > 100 µM | > 100 µM | > 100 µM | > 100 µM | > 100 µM | > 100 µM
18 | CC1=C/C(=N/N2C(=O)/C(=C/c3ccc(Cl)cc3)N=C2c2ccccc2)CC(C)(C)C1 | > 100 µM | > 100 µM | > 100 µM | > 100 µM | > 100 µM | > 100 µM | – | > 100 µM | > 100 µM | > 100 µM | > 100 µM

Row | SMILES | TGI (HCT-116 colon) | TGI (TK-10 renal) | TGI (ACHN renal) | TGI (MDA-N) | TGI (HOP-92 NSCLC) | TGI (M14 melanoma) | TGI (OVCAR-3 ovarian) | TGI (MDA-MB-435) | TGI (SR leukemia) | TGI (UO-31 renal) | TGI (NCI-H460 lung)
19 | CCCn1cnc2c(NN=O)ncnc21 | > 100 µM | > 100 µM | > 100 µM | > 100 µM | > 100 µM | > 100 µM | > 100 µM | > 100 µM | > 100 µM | > 100 µM | > 100 µM
20 | C=C(C)CCC1CCCCC(CN(C)C)C1=O (configuration not stated) | > 100 µM | > 100 µM | > 100 µM | > 100 µM | > 100 µM | > 100 µM | > 100 µM | > 100 µM | > 100 µM | > 100 µM | > 100 µM
21 | Cn1c(-c2csc(-c3ccc(Cl)cc3)n2)n[nH]c1=S | 40.9 µM | 40.2 µM | 34.8 µM | > 100 µM | 27.1 µM | > 100 µM | 34.9 µM | > 100 µM | > 100 µM | 44.9 µM | > 100 µM
22 | O=[N+]([O-])c1ccc(Cl)cc1C1ON=C(c2ccccc2)N1C12CC3CC(CC(C3)C1)C2 (configuration not stated) | > 100 µM | > 100 µM | > 100 µM | > 100 µM | > 100 µM | > 100 µM | > 100 µM | > 100 µM | > 100 µM | > 100 µM | > 100 µM
23 | Oc1cc(Cl)cc2cc(Br)cnc12 | > 100 µM | > 100 µM | > 32.1 µM | > 100 µM | > 100 µM | 6 µM | 7.9 µM | > 100 µM | > 20.1 µM | > 72.1 µM | > 57.7 µM
24 | C#CC(O)/C=C/CCCCCCC#CC/C=C\CC#CCCCCCC/C=C/C(O)C#C (configuration not stated) | 4.02 µM | 11 µM | 13.7 µM | 7.52 µM | 5.57 µM | 2.26 µM | 7.99 µM | 5.4 µM | 18 µM | 0.915 µM | 16.3 µM
25 | CCOC(=O)CCC(C(=O)OCC)n1nc2ccc(Nc3c(C)[n+]([O-])c4cc(Cl)ccc4[n+]3[O-])cc2n1 (configuration not stated) | > 100 µM | > 100 µM | > 100 µM | > 100 µM | > 100 µM | > 100 µM | > 100 µM | > 100 µM | > 100 µM | > 100 µM | 67.4 µM
26 | COc1nn(Cc2ccccc2F)c2ccc([N+](=O)[O-])cc12 | > 100 µM | > 100 µM | > 100 µM | > 100 µM | > 100 µM | > 100 µM | > 100 µM | > 23.6 µM | > 100 µM | > 100 µM | > 100 µM
27 | Clc1ccc(OCc2nnc3sc(-c4ccc(-c5ccc(Cl)cc5Cl)o4)nn23)c(Cl)c1 | 31.4 µM | 39.8 µM | 45.8 µM | 71.3 µM | 37.4 µM | 76.5 µM | 34 µM | > 100 µM | 25.5 µM | 44.4 µM | 55.2 µM
28 | N#Cc1c(=O)c2cc([N+](=O)[O-])ccc2n2c1[nH]c1ccccc12 | > 40.1 µM | > 100 µM | > 93.5 µM | > 77.4 µM | > 39 µM | > 64.6 µM | > 55.7 µM | > 79.9 µM | 96.6 µM | > 57.4 µM | > 89.2 µM
29 | O=c1c2cc(Br)ccc2oc2nc3n(c(=O)c12)CCCS3 | > 100 µM | > 100 µM | > 100 µM | > 100 µM | > 100 µM | > 100 µM | > 100 µM | > 100 µM | > 100 µM | > 100 µM | > 100 µM
30 | CCC(=O)OCc1ccc2oc(=O)c(C(=O)Oc3cncc(Cl)c3)cc2c1 | > 100 µM | > 100 µM | > 100 µM | > 100 µM | > 100 µM | > 100 µM | > 100 µM | > 100 µM | > 100 µM | > 100 µM | > 100 µM
31 | Cc1nc2c(nc1C)-c1c(c3c(n1Cc1ccccc1)C(=O)CCC3)C(=O)C2=O | > 100 µM | 38.1 µM | – | 4.82 µM | 90.3 µM | 91.1 µM | – | 5.98 µM | 6.36 µM | 4.07 µM | > 100 µM
32 | COC(=O)C(NC(=O)CNC(=O)CSc1nnc(COc2ccc(Cl)cc2)n1-c1ccccc1)C(C)C (configuration not stated) | 31.4 µM | 34.3 µM | 31.8 µM | 51.2 µM | 51.5 µM | 38.5 µM | 31.6 µM | 47.4 µM | 52.3 µM | 33.3 µM | 36.2 µM
33 | C=C1C(=O)OC2/C=C(\C)C(O)CC(O)C(C)(O)CC(OC(=O)/C(C)=C/C)C12 (configuration not stated) | > 100 µM | > 100 µM | > 100 µM | > 100 µM | 99.8 µM | > 100 µM | > 100 µM | > 100 µM | > 55.9 µM | > 100 µM | > 100 µM
34 | Cc1cccc2sc(NC(=O)c3cc([N+](=O)[O-])ccc3Cl)nc12 | 12 µM | 11.4 µM | > 100 µM | 3.69 µM | > 31.2 µM | 5.32 µM | 17.4 µM | 12.6 µM | > 100 µM | 10.4 µM | > 100 µM
35 | Oc1[nH]c2ccccc2c1N=NC1=NCCCCN1 | > 100 µM | > 100 µM | > 100 µM | > 100 µM | > 100 µM | > 100 µM | > 100 µM | > 100 µM | > 100 µM | > 100 µM | > 100 µM
36 | COc1ccc(/C=C2\CN(C)CC3=C2OC(N)=C(C#N)C3c2ccc(OC)cc2)cc1 (configuration not stated) | > 100 µM | > 100 µM | > 100 µM | > 100 µM | 59.3 µM | > 100 µM | > 93.1 µM | > 71.2 µM | > 100 µM | > 100 µM | > 100 µM
